These results are taken from article PMC7732128, “Regulation of gene transcription by thyroid hormone receptor β agonists in clinical development for the treatment of non-alcoholic steatohepatitis (NASH)” (PLoS ONE, 2020).

Read-outs that look alike come from different tables or passages of the source.

In assay [1] the test system is THR (ANGPTL4, CPT1A, DIO1 RNA in Huh-7 cells). Description: Differential gene expression assay in Huh-7 cells. The class given is cell-based, human. To be noted: for EC50: Homo sapiens; for fold less potent than T3: CPT1A transcription in Huh-7. The method, then: Hepatoma-derived Huh-7 cells (JCRB Cell Bank, JCRB0403) were obtained directly from the repository, which performed cell line authentication via isozyme analysis and comprehensively tested for microbial contamination, viral contamination, and cross culture contamination. Cells were routinely cultured in DMEM (Corning, 10-013-CM) supplemented with 10% FBS and 1% P/S at 37°C and 5% CO2 until 80–90% confluency. Cells were then detached with 0.05% trypsin (Corning, 25-052-CV), resuspended in TH-free medium (DMEM supplemented with 10% TH-depleted FBS and 1% P/S), and seeded into collagen-coated, 96-well microplates (Corning, 354407) at 5.0 x 10^4 cells/well. After 24 hrs, the culture medium was replaced with treatment media. Cells were treated for 24 hrs. TH-depletion of the FBS via resin treatment was accomplished as previously described. All treatment media were made by mixing test compounds, serially diluted in DMSO, with TH-free medium (0.1% final DMSO concentration).
After 24 hrs in treatment media, both Huh-7 cells and PHH were processed with the TaqMan Fast Advanced Cells-to-Ct Kit (Invitrogen, A35378), according to the manufacturer’s protocol. Briefly, the treatment media was removed and the cells were washed with 50 μL cold 1X phosphate-buffered saline (Corning, 21-040-CM). Fifty μL lysis buffer containing DNase I was added to each well and the plate was incubated on a rotor at RT for 5 mins. Five μL stop solution was then added to each well and after another 2 mins incubation on a rotor at RT, the cell lysates were used for reverse transcription. The resulting cDNA was diluted 1:2 with nuclease-free, distilled water (Invitrogen, 10977015). Gene expression was measured using TaqMan Fast Advanced Master Mix (Applied Biosystems, 4444964) and the following TaqMan Gene Expression assays (Applied Biosystems, 4331182): 18S (Hs99999901_s1), ACTB (Hs01060665_g1), ANGPTL4 (Hs01101123_g1), CPT1A (Hs00912671_m1), DIO1 (Hs00174944_m1), TFG (Hs02832013_g1), THRA (Hs00268470_m1), and THRB (Hs00230861_m1). ACTB and TFG served as control housekeeping genes for Huh-7 assays and 18S and ACTB for PHH assays. Ten μL reactions were run on the qTOWER³ 84 (Analytik Jena). Relative quantification (RQ) of gene expression was calculated via the 2^−ΔΔCt method and dose-response curves were fitted by non-linear regression with variable slope. Statistical analysis was performed in GraphPad Prism 8.
We aimed to develop an in vitro, cell-based assay that is not only amenable to high throughput screening of compounds, but that can also more reliably recapitulate in vivo processes. Because activated THR may function as a transcription factor, we compared the action of THR agonists in a human hepatocyte-derived cell line and in primary human hepatocytes (PHH) by quantifying transcriptional changes resulting from compound treatment (Fig 2A). Cells were cultured in TH-depleted media for 24 hrs and then treated with compounds for 24 hrs. The RNA levels of THR target genes were then measured via RT-qPCR.

Another assay deals with THR (THRSP RNA in PHH). Description: Differential gene expression assay in primary human hepatocytes (PHH). Format: cell-based. To be noted: Hepatocyte, RT-qPCR, 24 hrs treatment, read-out: PHH EC50 Mean ± SEM.
Where [2] appears, read: Huh-7, CPT1A RNA, RT-qPCR, 24 hrs treatment, read-out: Huh-7 EC50 Mean ± SEM.

In the case of `CC(C)c1cc(Oc2c(Cl)cc(-n3nc(C#N)c(=O)[nH]c3=O)cc2Cl)n[nH]c1=O` [MGL-3196, 2-[3,5-dichloro-4-(5-isopropyl-6-oxo-1,6-dihydropyridazin-3-yloxy)phenyl]-3,5-dioxo-2,3,4,5-tetrahydro[1,2,4]triazine-6-carbonitrile], the EC50 in assay [1] (setting [2]) came out at […]; in assay [1] (Huh-7, 24 hrs, n = 2 (Fig 2C), read-out: mean EC50, ANGPTL4) it was […]; in assay [1] (Huh-7, 24 hrs, n = 2 (Fig 2C), read-out: mean EC50, CPT1A), […]; in assay [1] (Huh-7, 24 hrs, n = 2 (Fig 2C), read-out: mean EC50, DIO1), […]; in the assay with THR (THRSP RNA in PHH) it was […].
For the compound `Cc1cc(OCP(=O)(O)O)cc(C)c1Cc1ccc(O)c(C(C)C)c1` [VK2809A], in assay [1], the “fold less potent than T3” value is “approximately 30 fold”. For the same compound, the EC50 in assay [1] (setting [2]) was 8.3 ± 2.2 nM; in the assay on THR (THRSP RNA in PHH), 14.8 ± 10.7 nM.
On to `Cc1cc(OCP2(=O)OCC[C@@H](c3cccc(Cl)c3)O2)cc(C)c1Cc1ccc(O)c(C(C)C)c1` (stereo partly drawn) [VK2809], for which the “fold less potent than T3” value in assay [1] is ~2,000 fold. The EC50 in assay [1] (setting [2]) was 589 ± 120 nM; with THR (THRSP RNA in PHH) it was 18.7 ± 8.9 nM. For the same compound, the “times weaker than VK2809A” value in assay [1] (Huh-7 assay) is recorded as 71 times.
